From patent US8399495B2, “Talarazole metabolites” (Stiefel Laboratories, Inc., priority 2006, dated 2013)

How the values were obtained:
[1] = Metabolite radioprofiling of plasma, urine and feces, rat; assay type: in vivo; settings: rat (5 mg/kg) oral 14C-talarozole; for Urine % Dose as the component: urine 0-48 h
Experimental: (§1) Male and female CD-1 mice (19-29 g, n=3/sex/timepoint for blood sampling, n=3/sex for mass balance), Sprague Dawley rats (0.205-0.237 kg, n=3/sex/timepoint for blood sampling, n=3/sex for mass balance) and beagle dogs (7-12 kg, n=3) were given a single oral dose of ^14C-labeled talarozole in 20% hydroxyl propyl B-cyclodextrin at 5 mg/kg. Healthy human male volunteers (76.6-107.9 kg, n=5) were dosed with a single oral dose of 4 mg ^14C-labeled rambazole in ethanol. Blood samples were collected at selected timepoints after dosing and plasma was prepared. Urine and feces were collected for 2, 7 and 8 days. For the human study, up to 288 hours post-dose and semen samples were obtained 2 and 4 hours post-dose. Radioactivity in various matrices were measured by liquid scintillation counting (LSC). Select plasma, urine and fecal samples were subjected to metabolite radioprofiling and characterization, and in the human study, semen samples. Metabolite radioprofiling was accomplished using HPLC with fraction collection followed by solid scintillation counting (Packard TopCount—see representative HPLC run data below). Radioactivity peaks were integrated and the percent distribution of individual metabolites in each sample was determined. Metabolite characterization and identification were accomplished by LC/MS (Finnigan MAT LCQ in positive or negative ESI mode) in conjunction with an appropriate radioactive monitor (RAM). For all species, plasma, urine and fecal samples were pooled across animals and analyzed. Plasma was analyzed at several time-points out to 24 hours. Urine was analyzed over one time-interval (0-24 hours for mouse, 0-48 hours for rat, 0-72 hours for dog, and for in the human study, 0-12, 12-24, 24-48, 0-48 hours. Feces was analyzed over 2-3 time intervals (0-24 and 24-48 hours for mouse and rat; 0-24, 24-48, and 48-72 hours for male dogs; and 24-48, 48-72, and 72-96 hours for female dogs). In the human study, feces were analyzed for 0-48, 48-96, 96-144, 144-192, 192-288, 0-144, 144-288 and 0-288 hours. PK parameters for ^14C-labeled talarozole radioactivity was determined from the mean (mouse and rat) or individual (dog and human) plasma concentration versus time data. PK parameter values were determined by non-compartmental methods using WinNonlin™. • HPLC data for separations described in Example 1: • LC system: Waters 2695 Separations Module • Analytic column: C18 column, 4.6×150 mm, 3 μm • Flow rate: 1.0 mL/min • Mobile phase A: 2% HCOOH in H2O (pH 3.2) • Mobile phase B: CH3CN • Gradient: […]

[2] = Metabolite radioprofiling of plasma, urine, feces and semen, human; settings: in vivo
Experimental: as §1

[3] = Metabolite radioprofiling of plasma, urine and feces, mouse; assay type: in vivo; settings: mouse (5 mg/kg) oral 14C-talarozole; for Urine % Dose as the component: urine 0-24 h
Experimental: as §1

IP-10 = test: Suppression of IP-10 production by IFNγ-activated human epidermal keratinocytes; assay type: cell-based
Excerpt: Talarozole Metabolites for Suppression of IP-10 Production by IFNγ-Activated Human Epidermal Keratinocytes
IP-10, a member of the CXC subfamily of chemokines, attracts T-lymphocytes and natural killer cells. […] In particular, epidermal keratinocytes of psoriatic lesions express elevated levels of IP-10. Suppression of IP-10 expression by activated keratinocytes may represent a novel target for therapeutic intervention of inflammatory skin disorders.

[4] = test system: vaginal keratinization induced by estrogenic treatment; test: Inhibition of vaginal keratinization induced by estrogenic treatment in ovariectomized rats; assay type: in vivo, rat; settings: for ED50-value for complete suppression (keratinization score=0): ovariectomized rats with estrogenic treatment, M4 oral during 3 days
Excerpt: Effects on Epithelial Differentiation in Rat Vagina: Inhibition of Vaginal Keratinization Induced by Estrogenic Treatment in Ovariectomized Rats by Oral Administration of Talarozole Metabolite M4
This animal model is based on the observation that retinoic acid (RA) suppresses the keratinization process in the stratified squamous epithelium of the vagina induced by estrogenic treatment in ovariectomized rats (Sietsema & DeLuca, 1982; Geiger & Weiser, 1989).

[5] = Metabolite radioprofiling of plasma, urine and feces, dog; assay type: in vivo; settings: dog (5 mg/kg) oral 14C-talarozole; for Urine % Dose as the component: urine 0-72 h
Experimental: as §1

Structure (SMILES)	Feces % Dose as the component ([1]; female)	Plasma 0-24 h AUC (% Sample) ([1]; female)	Plasma 0-24 h AUC of the radioactive component ([1]; female)	Urine % Dose as the component ([1]; female)	Feces % Dose as the component ([1]; male)	Plasma 0-24 h AUC (% Sample) ([1]; male)	Plasma 0-24 h AUC of the radioactive component ([1]; male)	Urine % Dose as the component ([1]; male)	Plasma 0-24 h AUC (% Sample) ([3]; female)	Plasma 0-24 h AUC of the radioactive component ([3]; female)	Plasma 0-24 h AUC (% Sample) ([3]; male)	Plasma 0-24 h AUC of the radioactive component ([3]; male)	Feces % Dose as the component ([5]; female)	Urine % Dose as the component ([5]; female)	Feces % Dose as the component ([5]; male)	Urine % Dose as the component ([5]; male)	IP-10 expression (IP-10)	ED50-value for complete suppression (keratinization score=0) [4]	other results
CCC(CC)[C@@H](c1ccc(Nc2nc3ccccc3s2)cc1)n1cncn1 [its enanantiomer]																	down regulate dose-dependently		
CC1=C(/C=C/C(C)=C/C=C/C(C)=C/C(=O)O)C(C)(C)CCC1 [RA, retinoic acid]																		5.1 mg/kg/day	

Second part, led by results:

Feces % Dose as the component ([1]; female)	Plasma 0-24 h AUC (% Sample) ([1]; female)	Plasma 0-24 h AUC of the radioactive component ([1]; female)	Urine % Dose as the component ([1]; female)	Feces % Dose as the component ([1]; male)	Plasma 0-24 h AUC (% Sample) ([1]; male)	Plasma 0-24 h AUC of the radioactive component ([1]; male)	Urine % Dose as the component ([1]; male)	Plasma 0-24 h AUC (% Sample) ([3]; female)	Plasma 0-24 h AUC of the radioactive component ([3]; female)	Plasma 0-24 h AUC (% Sample) ([3]; male)	Plasma 0-24 h AUC of the radioactive component ([3]; male)	Feces % Dose as the component ([5]; female)	Urine % Dose as the component ([5]; female)	Feces % Dose as the component ([5]; male)	Urine % Dose as the component ([5]; male)	Structure (SMILES)	IP-10 expression (IP-10)	ED50-value for complete suppression (keratinization score=0) [4]	other results
1.33 % Dose	2.43%	218.47 ng·h/g	0.31 % Dose	1.42 % Dose	2.94%	207.48 ng·h/g	0.16 % Dose									CCC(CC)C(c1ccc(Nc2nc3ccc(OS(=O)(=O)O)cc3s2)cc1)n1cncn1 (stereo not shown) [Metabolite M16]			
7.76 % Dose	3.68%	331.07 ng·h/g	0.29 % Dose	4.95 % Dose	7.01%	493.84 ng·h/g	0.07 % Dose	7.44%	492.2 ng·h/g	4.43%	402.45 ng·h/g	17.01 % Dose	0.01 % Dose	19.88 % Dose	0.04 % Dose	CCC(CC)C(c1ccc(Nc2nc3ccc(O)cc3s2)cc1)n1cncn1 (stereo not shown) [Metabolite M4]	down regulate dose-dependently	1.2 mg/kg/day	Plasma 0-24 h AUC of the radioactive component ([2]; human, po, 0.067 mg/kg): 58.74 ng·h/g; Semen (radioactive component in semen samples) [2]: minor radioactive components; Plasma 0-24 h AUC (% Sample), % of total plasma radioactivity ([2]; male, human, po, 0.067 mg/kg): 27.8%; Feces % Dose as the component ([3]; female): 15.16 % Dose; Urine % Dose as the component ([3]; female): 0.01 % Dose; Feces % Dose as the component ([3]; male): 10.56 % Dose; Urine % Dose as the component ([3]; male): 0.02 % Dose; inhibition of vaginal keratinization ([4]; oral administration during 3 days, ovariectomized rats): inhibited vaginal keratinization induced by estrogenic treatment in ovariectomized rats in a dose-dependent manner; Plasma 0-24 h AUC (% Sample) ([5]; female): 34.33%; Plasma 0-24 h AUC of the radioactive component ([5]; female): 6257.6 ng·h/g; Plasma 0-24 h AUC (% Sample) ([5]; male): 18.37%; Plasma 0-24 h AUC of the radioactive component ([5]; male): 3132.4 ng·h/g
	12.06%	1084.8 ng·h/g			4.43%	312.30 ng·h/g		18.27%	1208.2 ng·h/g	21.31%	1937.3 ng·h/g	3.09 % Dose	0.45 % Dose	4.31 % Dose	1.35 % Dose	CCC(CC)C(c1ccc(Nc2nc3ccc(OC4OC(C(=O)O)C(O)C(O)C4O)cc3s2)cc1)n1cncn1 (stereo not shown) [Metabolite M9]			
